These are literature values, as cited in patent US12616197B2, “Three-dimensional printing” (PERIDOT PRINT LLC, priority 2021, dated 2026).

Converted amounts (≈) assume the structure as drawn. Read-outs that look alike come from different tables or passages of the source.

Consider `Cc1ncc(CO)c(CN)c1O` [pyridoxamine], for which the solubility in water (water) is given as 29 mg/mL (≈ 172 mM). `Cc1ncc(CO)c(CO)c1O.Cl` [pyridoxine hydrochloride]: the solubility in water is 200 mg/mL. `Cc1cc2nc3c(=O)[nH]c(=O)nc-3n(C[C@H](O)[C@H](O)[C@H](O)CO)c2cc1C` [riboflavin]: the solubility in water (water, depending on the crystal structure) is 1000 mg/3,000-15,000 mL. For cyanocobalamin, the solubility in water (water) is given as 1000 mg/80 mL.
